# Experimental data published in article PMC5847527, “Identification of a novel 2-oxindole fluorinated derivative as in vivo antitumor agent for prostate cancer acting via AMPK activation” (Scientific Reports, 2018).
# Columns and labels:
# [1] = test system: PC-3, DU145 and LNCaP cells; assay: Cell viability by cell counting (Trypan blue); format: cell-based; conditions: 25 µM
# Experimental: Figure 3 Comparison of the effect of 2-oxindole fluorinated derivatives on the proliferation of human prostate cancer cells. (A) Normal (PTN2 and RWPE-1) and cancer (PC3,DU145 and LNCaP) prostate cells were treated with different doses of the compounds for 24 hours and cell viability was monitored by MTT assay. […] (C) PC-3, DU145 and LNCaP cells were treated with 25 µM of compound 8c for different times. Values were normalized with the control and represent the mean ± SD of at least three independent experiments. *p < 0.05 and **p < 0.01 compared to control by the Student’s - test.
# To confirm the antiproliferative effect of compound 8c, cell viability was evaluated by cell counting at different times in PC-3, DU145 and LNCaP cells.
# Cell viability was determined by 3-(4,5-dimethylthiazol-2-yl)-2,5-diphenyltetrazolium bromide (MTT) (Sigma-Aldrich) method. […] The optical density in each well was evaluated by measurement of absorbance at 490 and 650 nm using a microplate reader (ELX 800 Bio-Tek Intruments, INC). IC50 values were calculated using GraphPad Prism vs 6.0 (GraphPad Software, Inc, La Jolla, CA, USA). Cell viability was also determined by counting viable and dead cells by Trypan blue staining. Trypan blue positive and negative cells were counted using a Countess^TM automated cell counter (Invitrogen, Carlsbad, CA, USA). […]
# AMPK = AMPK and ACC phosphorylation by Western blot in DU145 cells; format: cell-based, human; conditions: 25 µM, 1 hour
# Experimental: Figure 2 Effect of 2-oxindole fluorinated derivatives on AMPK activity in prostate cancer cells. (A) PC-3, DU145 and LNCaP cells were treated with 25 µM of the selected 2-oxindole fluorinated derivatives for 1 hour. Levels of the phosphorylated AMPK (pAMPK), phosphorylated ACC (pACC) and their total forms were determined by Western blot. Upper panel, a representative Western blot of three different experiments. β-tubulin (β-Tub) serves as a loading control. […] Lower panels, densitometric analyses of bands represented as the mean of the ratio pAMPK/AMPK or pACC/ACC ± SD of three different experiments. *p < 0.05 compared with the controls by one-way ANOVA followed by Fisher’s LSD test; ^#p < 0.05 compared with 2-oxindole fluorinated derivates or with the AMPK activators AMP or A769662 by one-way ANOVA followed by Tukey test.
# Similar results were obtained although AMPK stimulation by compound 8c was not so strong (Fig. 2A). […]
# Cells were lysed in Lysis buffer (50 mM Tris pH 7.4, 0.8 M NaCl, 5 mM MgCl2, 0.1% Triton X-100) containing Protease Inhibitor and Phosphatase inhibitor Cocktails (Roche, Basel, Switzerland). Protein concentrations were measured by BioRad™ protein assay kit (Richmond, CA, USA). […] Films were analyzed by densitometry. […]
compound,measurement,setting,value
"O=C1Nc2ccccc2C1(F)Cc1ccc(-c2ccccc2)o1 (centres unmarked) [Compound 8c, 3-fluoro-3-((5-phenylfuran-2-yl)methyl)indolin-2-one]",cytotoxic effect by cell counting at different times,[1],time-dependent strong cytotoxic effect
same,AMPK phosphorylation (pAMPK/AMPK),AMPK,stimulate AMPK in DU145 cells
